# Columns and labels:
# [1] = test system: BALB/c3T3 mouse embryonic fibroblast cell line; assay: MTT cytotoxicity assay
# Protocol: (§1) The cytotoxic effects of the tested peptidomimetics 1–16 on BALB/c3T3 mouse fibroblast cells were determined using the MTT assay after 24 h of incubation at five different concentrations (1, 2, 4, 6, and 8 µg/mL). The MTT test is based on the ability of the mitochondrial dehydrogenase enzymes to convert an orange, water-soluble tetrazolium salt (3-(4,5-dimethylthiazol-2-yl)-2,5-diphenyltetrazolium bromide) into an insoluble formazan, which is a dark blue product of the above reaction. After dissolving the formazan crystals in DMSO or isopropanol, a coloured solution was formed, the intensity of which is measured spectrophotometrically within the wavelength range of 492–570 nm. The amount of coloured reduced MTT is proportional to the oxidative activity of the cell’s mitochondria and, under strictly defined experimental conditions, to the number of metabolically active (living) cells in the population. The MTT test can also be used to determine cell viability in populations of cells that no longer divide but are metabolically active.
# [2] = test system: E. coli (K12 (ATCC 25404), R2 (ATCC 39544), R3 (ATCC 11775), R4 (ATCC 39543)), A. baumannii (ATCC 17978), P. aeruginosa (ATCC 15442), E. cloacae (ATCC 49141) …; assay: Minimum inhibitory concentration (MIC), microtiter plate method with resazurin; type: cell-based, S. aureus; conditions: Gram-negative and Gram-positive bacteria
# From the text: The reference bacterial strains of E.coli (K12 ATCC 25404, R2 ATCC 39544, R3 ATCC 11775, and R4 ATCC 39543) and Staphylococcus aureus strain (ATCC 23235), as well as Acinetobacter baumannii (ATCC 17978), Pseudomonas aeruginosa (ATCC 15442), and Enterobacter cloacae (ATCC 49141) were obtained from LGC Standards U.K. and were used according to the recommendation of ISO 11133 [30]. These strains were used to test the antibacterial activity of the analysed compounds by determining the minimum inhibitory concentration (MIC) and minimum bactericidal concentration (MBC), as described in [8, 9, 26, 27, 28, 29, 30, 31]. The results are shown in Figures S33 and S34 in the Supplementary Materials.
# MIC and MBC were estimated using a microtiter plate method with sterile 48- or 96-well plates, which is precisely described in [9]. Briefly, MIC and MBC, defined as the lowest concentration of a bacteriostatic agent, were determined. Briefly, 50 μL of the analysed compounds and the appropriate bacterial strains were added to the first row of the plate. Then, 25 μL of sterile Tryptone Soya Broth (TSB) medium was added to the other wells, and serial dilutions were performed. Subsequently, 200 μL of inoculated TSB medium containing resazurin (0.02 mg/mL) as an indicator was added to all wells. TSB medium was inoculated with 10^6 colony-forming units (CFU)/mL (approximately 0.5 McFarland units) of the bacterial strains. The plates were incubated at 30 °C for 24 h. Changes in colour from blue to pink or yellowish with turbidity were considered positive, and the lowest concentration at which no visible change in colour occurred was recorded as the MIC, according to Kowalczyk et al.. Each experiment (both MIC and MBC) was repeated at least three times.
# S. aureus = conditions: against S. aureus; cited from earlier work
# MTT cytotoxicity assay = conditions: mouse
# Protocol: as §1
# [3] = test system: S. aureus strain (ATCC 23235); type: cell-based, Staphylococcus aureus; conditions: S. aureus (ATCC 23235)
compound,measurement,setting,value
COc1ccc(CNC(=O)C(O)c2ccc(Br)cc2O)cc1 (stereo not drawn),melting point,,96 to 100 °C
COc1ccc(CNC(=O)C(OC(=O)Cc2ccccc2)c2ccc(Br)cc2OC(C)=O)cc1 (stereo not drawn),melting point,,107 to 108 °C
CC(=O)Oc1cc(Br)ccc1C(OC(=O)Cc1ccccc1)C(=O)NCc1ccccc1 (stereo not drawn),melting point,,122 to 124 °C
CC(=O)Oc1ccc2ccc(=O)oc2c1C(OC(=O)Cc1ccccc1)C(=O)NCc1ccc(F)cc1 (stereo not drawn),melting point,,61 to 63 °C
CC(=O)Oc1ccc2c(C(F)(F)F)cc(=O)oc2c1C(OC(=O)Cc1ccccc1)C(=O)NCc1ccccc1 (stereo not drawn),melting point,,54 to 57 °C
CC(=O)Oc1ccc2c(C(F)(F)F)cc(=O)oc2c1C(OC(=O)Cc1ccccc1)C(=O)NCc1ccc(F)cc1 (stereo not drawn),melting point,,51 to 55 °C
1-(7-Acetoxy-4-methyl-2-oxo-2H-chromen-8-yl)-2-((4-fluorobenzyl)amino)-2-oxoethyl 2-phenylacetate [Compound 1],IC50 for fibroblasts,[1]; after 24 h of incubation,4.26 µg/mL
same,spectrum of antibacterial activity,[2],broad-spectrum activity
Cc1cc(=O)oc2cc(OCc3ccc(-c4ccccc4)cc3)ccc12 [A],IC50,S. aureus,9.7 µM
"COc1ccc(CNC(=O)C(OC(=O)Cc2ccccc2)c2c(OC(C)=O)ccc3c(C)cc(=O)oc23)cc1 (stereo not drawn) [Compound 2, 1-(7-Acetoxy-4-methyl-2-oxo-2H-chromen-8-yl)-2-((4-methoxybenzyl)amino)-2-oxoethyl 2-phenylacetate]",spectrum of antibacterial activity,[2],broad-spectrum activity
same,melting point,,66 to 68 °C
"CC(=O)Oc1ccc2ccc(=O)oc2c1C(OC(=O)Cc1ccccc1)C(=O)NCc1ccccc1 (stereo not drawn) [Compound 3, 1-(7-Acetoxy-2-oxo-2H-chromen-8-yl)-2-(benzylamino)-2-oxoethyl 2-phenylacetate]",spectrum of antibacterial activity,[2],broad-spectrum activity
same,melting point,,64 to 66 °C
"COc1ccc(CNC(=O)C(OC(=O)Cc2ccccc2)c2c(OC(C)=O)ccc3ccc(=O)oc23)cc1 (stereo not drawn) [Compound 4, 1-(7-Acetoxy-2-oxo-2H-chromen-8-yl)-2-((4-methoxybenzyl)amino)-2-oxoethyl 2-phenylacetate]",spectrum of antibacterial activity,[2],broad-spectrum activity
same,melting point,,57 to 59 °C
"CC(=O)Oc1ccc2c(C)cc(=O)oc2c1C(OC(=O)Cc1ccccc1)C(=O)NCc1ccc(F)cc1 (stereo not drawn) [Compound 6, 1-(7-Acetoxy-4-methyl-2-oxo-2H-chromen-8-yl)-2-((4-fluorobenzyl)amino)-2-oxoethyl 2-phenylacetate]","viability at 24 h, 2 µg/mL",MTT cytotoxicity assay,87%
same,melting point,,56 to 59 °C
"COc1ccc(CNC(=O)C(OC(=O)Cc2ccccc2)c2c(OC(C)=O)ccc3c(C(F)(F)F)cc(=O)oc23)cc1 (stereo not drawn) [Compound 9, 1-(7-Acetoxy-2-oxo-4-(trifluoromethyl)-2H-chromen-8-yl)-2-((4-methoxybenzyl)amino)-2-oxoethyl 2-phenylacetate]",spectrum of antibacterial activity,[2],broad-spectrum activity
same,melting point,,54 to 58 °C
same,activity against S. aureus,[3],very potent activity
"COc1ccc(CNC(=O)C(OC(=O)Cc2ccccc2)c2ccccc2OC(C)=O)cc1 (stereo not drawn) [Compound 14, 1-(2-Acetoxyphenyl)-2-((4-methoxybenzyl)amino)-2-oxoethyl 2-phenylacetate]",IC50,"[1]; Mus musculus, BALB/c3T3, 24 h, read-out: IC50 for fibroblasts",7.22 µg/mL
"CC(=O)Oc1ccccc1C(OC(=O)Cc1ccccc1)C(=O)NCc1ccccc1 (stereo not drawn) [Compound 15, 1-(2-Acetoxyphenyl)-2-(benzylamino)-2-oxoethyl 2-phenylacetate]","viability at 24 h, 2 µg/mL",MTT cytotoxicity assay,66.5%
Cc1cc(=O)oc2c(C)c(OCc3ccc(-c4ccccc4)cc3)ccc12 [Compound B],IC50,S. aureus,3 µM
"Cc1onc(-c2ccccc2Cl)c1C(=O)N[C@@H]1C(=O)N2[C@@H]1SC(C)(C)[C@@H]2C(=O)O [cloxacillin, reference compound]",viability,MTT cytotoxicity assay; BALB/c3T3 mouse embryonic fibroblast cells,85 to 89.9%

# From article PMC11312933, “Mystery of the Passerini Reaction for the Synthesis of the Antimicrobial Peptidomimetics against Nosocomial Pathogenic Bacteria” (International Journal of Molecular Sciences, 2024)
